Measurements taken from ChEMBL document CHEMBL4130341 (Medchemcomm, 2016).
The source made the active and inactive calls. The rule behind the calls is not given here.

Experiments:
[1] = target: T1, Nuclear factor erythroid 2-related factor 2 (Mus musculus) (UniProt Q60795); assay: Activation of Nrf2 in wild type mouse Hepa1c1c7 cells cytosolic fraction assessed as induction of quinone reductase activity at 10 uM using 2,6-DCIP as substrate in presence of NADH incubated for 48 hrs measured for 1 min relative to control
T1 sequence (whole entry): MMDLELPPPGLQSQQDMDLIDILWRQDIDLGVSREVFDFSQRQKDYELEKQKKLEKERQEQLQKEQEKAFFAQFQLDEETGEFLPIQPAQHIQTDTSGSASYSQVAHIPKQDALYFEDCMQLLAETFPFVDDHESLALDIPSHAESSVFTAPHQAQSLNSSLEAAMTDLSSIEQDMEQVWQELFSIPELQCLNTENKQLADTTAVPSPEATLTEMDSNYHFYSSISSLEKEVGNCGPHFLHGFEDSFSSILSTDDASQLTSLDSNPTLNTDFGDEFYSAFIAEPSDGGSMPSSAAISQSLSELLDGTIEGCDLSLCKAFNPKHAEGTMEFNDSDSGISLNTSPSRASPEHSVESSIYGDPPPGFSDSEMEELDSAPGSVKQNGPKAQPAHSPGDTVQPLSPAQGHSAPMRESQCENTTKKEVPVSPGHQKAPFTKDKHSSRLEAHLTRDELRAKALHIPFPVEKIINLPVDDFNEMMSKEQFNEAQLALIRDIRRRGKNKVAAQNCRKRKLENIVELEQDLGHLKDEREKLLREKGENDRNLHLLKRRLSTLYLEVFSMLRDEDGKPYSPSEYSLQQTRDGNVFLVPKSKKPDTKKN

[2] = target: T1, Nuclear factor erythroid 2-related factor 2 (Mus musculus); assay: Ratio of activation of wild type Nrf2 in mouse Hepa1c1c7 cells cytosolic fraction to activation of Nrf2 in mutant mouse BpRc1 cells cytosolic fraction; type: cell-based
MCF7 [3] = assay: Cytotoxicity against human MCF7 cells assessed as cell survival at 100 uM after 24 hrs by SRB assay relative to control; type: functional; conditions: for viability at 100 µM: MCF7, 24 h, read-out: Survival
Salmonella typhimurium = assay: Mutagenicity in Salmonella typhimurium TA98 in presence of mouse liver S9 fraction by Ames test; type: toxicity, organism-based; conditions: salmonella enterica subsp. enterica serovar typhimurium
[4] = target: T1, Nuclear factor erythroid 2-related factor 2 (Mus musculus); assay: Activation of Nrf2 in mutant mouse BpRc1 cells cytosolic fraction assessed as induction of quinone reductase activity at 10 uM using 2,6-DCIP as substrate in presence of NADH incubated for 48 hrs measured for 1 min relative to control; type: cell-based
HK-2 = assay: Genotoxicity in human HK2 cells assessed as induction of DNA strand breakage at 20 uM after 6 hrs by DAPI staining based alkaline comet assay; type: toxicity, cell-based; conditions: hk-2, 6 h
[5] = target: T1, Nuclear factor erythroid 2-related factor 2 (Mus musculus); assay: Activation of Nrf2 in wild type mouse Hepa1c1c7 cells cytosolic fraction assessed as induction of quinone reductase activity using 2,6-DCIP as substrate in presence of NADH incubated for 48 hrs measured for 1 min
[6] = Ratio of IC50 for cytotoxicity against wild type mouse Hepa1c1c7 cells to CD for activation of Nrf2 in wild type mouse Hepa1c1c7 cells cytosolic fraction
[7] = target: T1, Nuclear factor erythroid 2-related factor 2 (Mus musculus); assay: Ratio of CD for activation of Nrf2 in mutant mouse BpRc1 cells cytosolic fraction to CD for activation of Nrf2 in wild type mouse Hepa1c1c7 cells cytosolic fraction; type: cell-based
[8] = Cytotoxicity against mutant mouse BpRc1 cells after 48 hrs by SRB assay; type: functional, cell-based; conditions: BPrc1, 48 h
[9] = target: T1, Nuclear factor erythroid 2-related factor 2 (Mus musculus); assay: Activation of Nrf2 in mutant mouse BpRc1 cells cytosolic fraction assessed as induction of quinone reductase activity using 2,6-DCIP as substrate in presence of NADH incubated for 48 hrs measured for 1 min; type: cell-based
[10] = Cytotoxicity against wild type mouse Hepa1c1c7 cells after 48 hrs by SRB assay; type: functional, cell-based; conditions: Hepa-1c1c7, 48 h
[11] = Ratio of IC50 for cytotoxicity against mutant mouse BpRc1 cells to CD for activation of Nrf2 in mutant mouse BpRc1 cells cytosolic fraction
HT-29 [12] = assay: Cytotoxicity against human HT-29 cells assessed as cell survival at 100 uM after 24 hrs by SRB assay relative to control; type: functional; conditions: HT-29, 24 h, read-out: Survival
[13] = target: T1, Nuclear factor erythroid 2-related factor 2 (Mus musculus); assay: Induction of Nrf2 nuclear translocation in mouse Hepa1c1c7 cells at 20 uM after 6 hrs by DAPI/Hoechst 33258 staining-based immunofluorescence method; type: cell-based
TK-10 = assay: Cytotoxicity against human TK10 cells assessed as cell survival after 24 hrs by SRB assay; type: functional, cell-based; conditions: TK-10, 24 h
Rattus norvegicus [14] = assay: Toxicity in Wistar rat assessed as effect on behavior at 15 mg/kg, po qd administered over 2 weeks; type: organism-based; conditions: in vivo, 336 h
Rattus norvegicus [15] = assay: Toxicity in Wistar rat assessed as effect on body weight at 15 mg/kg, po qd administered over 2 weeks; type: organism-based; conditions: in vivo, 336 h
Rattus norvegicus [16] = assay: In vivo induction of CYP450 activity in Wistar rat liver microsomal fraction at 15 mg/kg, po qd administered over 2 weeks by measuring EROD activity using 7-ethoxyresorufine as substrate measured for 5 mins; type: ADME, organism-based; conditions: microsomes
Rattus norvegicus [17] = assay: In vivo induction of CYP450 activity in Wistar rat mammary gland microsomal fraction at 15 mg/kg, po qd administered over 2 weeks by measuring EROD activity using 7-ethoxyresorufine as substrate measured for 5 mins; type: ADME, organism-based; conditions: microsomes
Rattus norvegicus [18] = assay: In vivo induction of CYP450 activity in Wistar rat colon microsomal fraction at 15 mg/kg, po qd administered over 2 weeks by measuring EROD activity using 7-ethoxyresorufine as substrate measured for 5 mins; type: ADME, organism-based; conditions: microsomes
HT-29 [19] = assay: Cytotoxicity against human HT-29 cells assessed as cell survival after 24 hrs by SRB assay; type: functional, cell-based; conditions: HT-29, 24 h
MCF7 [20] = assay: Cytotoxicity against human MCF7 cells assessed as cell survival after 24 hrs by SRB assay; type: functional, cell-based; conditions: MCF7, 24 h

Row | SMILES | fold change (FC) [1] | Ratio [2] | Activity (MCF7 [3]) | Activity (Salmonella typhimurium) | fold change (FC) [4] | Activity (HK-2) | other results
1 | O=C(CC(CC(=O)c1ccccc1)c1cccc2ccccc12)c1ccccc1 | 0.83 | 0.4 | Active | Non-Toxic | 2.38 | – | –
2 | O=C(/C=C/c1cncc(Br)c1)c1ccc2ccccc2c1O | 2.3 | 2 | Active | Non-Toxic | 1.13 | Non-Toxic | –
3 | O=c1cc(-c2ccc(Br)cc2)oc2ccccc12 | 4.45 | 2.99 | – | – | 1.49 | – | CD [5]: 0.79 µM; Ratio [6]: 107; Ratio [7]: 101; IC50 [8]: 150 µM; CD [9]: 80 µM; IC50 [10]: 85 µM; Ratio [11]: 1.9
4 | O=C(/C=C/c1ccnc2ccccc12)c1ccc2ccccc2c1 | 1.28 | 1 | Active | Non-Toxic | 1.25 | – | –
5 | O=C(/C=C/c1ccc2ccccc2c1)c1ccccc1 | 0.95 | 0.7 | Active | Non-Toxic | 1.41 | Non-Toxic | –
6 | O=C(/C=C/c1cccc2ccccc12)c1c(O)ccc2ccccc12 | 1.29 | 1.6 | – | Non-Toxic | 0.82 | Non-Toxic | viability at 100 µM (MCF7 [3]): < 50%; viability at 100 µM (HT-29 [12]): < 50%
7 | O=C(/C=C/c1cccc2ccccc12)c1ccccc1O | 3.21 | 1.5 | – | Non-Toxic | 2.21 | Non-Toxic | Activity [13]: Active; CD [5]: 11 µM; Ratio [6]: 3; IC50 (TK-10): 14 µM; Ratio [7]: 0.91; Activity (Rattus norvegicus [14]): Non-Toxic; viability at 100 µM (MCF7 [3]): < 50%; Activity (Rattus norvegicus [15]): Non-Toxic; viability at 100 µM (HT-29 [12]): < 50%; IC50 [8]: 45 µM; CD [9]: 10 µM; IC50 [10]: 33 µM; Ratio [11]: 4.5; Activity (Rattus norvegicus [16]): Toxic; Activity (Rattus norvegicus [17]): Non-Toxic; Activity (Rattus norvegicus [18]): Non-Toxic
8 | O=C(/C=C/c1cncc(Br)c1)c1ccccc1O | 1.51 | 1.5 | Active | Non-Toxic | 1.03 | – | IC50 (TK-10): 20 µM
9 | O=C(/C=C/c1ccc2ccccc2c1)c1c(O)ccc2ccccc12 | 1.76 | 2.2 | Active | Non-Toxic | 0.79 | Non-Toxic | –
10 | O=C(/C=C/c1ccc2ccccc2c1)c1ccccc1O | 2.96 | 2.1 | – | Non-Toxic | 1.39 | Non-Toxic | CD [5]: 0.5 µM; Ratio [6]: 170; Ratio [7]: 40; viability at 100 µM (MCF7 [3]): < 50%; viability at 100 µM (HT-29 [12]): < 50%; IC50 [8]: 85 µM; CD [9]: 20 µM; IC50 [10]: 85 µM; Ratio [11]: 4.2
11 | O=C(/C=C/c1cccc2ccccc12)c1ccccc1 | 0.88 | 1 | Active | Non-Toxic | 0.92 | Non-Toxic | –
12 | O=C(/C=C/c1ccccc1)c1ccc2ccccc2c1 | 0.96 | 0.8 | – | Non-Toxic | 1.21 | Non-Toxic | viability at 100 µM (MCF7 [3]): < 50%; viability at 100 µM (HT-29 [12]): < 50%; IC50 (HT-29 [19]): 32 µM; IC50 (MCF7 [20]): 28 µM
13 | O=C(/C=C/c1ccnc2ccccc12)c1ccc2ccccc2c1O | 1.48 | – | Active | – | 0.85 | – | –
14 | O=C(/C=C/c1ccnc2ccccc12)c1ccccc1O | 5.42 | 4 | – | Non-Toxic | 1.34 | – | –
15 | O=C(CC(O)c1ccccc1)c1c(O)ccc2ccccc12 (stereo unspecified) | 3.31 | 2.9 | Active | – | 1.14 | – | –
16 | O=C(CC(O)c1ccccc1)c1ccc2ccccc2c1 (stereo unspecified) | 5.04 | 2.9 | Active | Non-Toxic | 1.74 | Non-Toxic | –
17 | CC(C)(C)c1cc(O)ccc1O [E319] | – | – | – | – | – | – | Activity [13]: Active; CD [5]: 1 µM; Ratio [6]: 147; Ratio [7]: 6; IC50 [8]: 60 µM; CD [9]: 6 µM; IC50 [10]: 147 µM; Ratio [11]: 10
18 | O=C(/C=C/c1ccc(Br)cc1)c1ccccc1O | – | – | – | – | – | Non-Toxic | –
19 | O=C(/C=C/c1ccccn1)c1ccccc1O | – | – | – | – | – | Non-Toxic | –
20 | O=C(/C=C/c1ccccc1)c1ccc2ccccc2c1O | 3.04 | – | – | – | 0.57 | – | –
21 | O=C(/C=C/c1ccc2ccccc2c1)c1ccc2ccccc2c1O | 1.44 | 1.5 | Active | Non-Toxic | 0.97 | – | –
22 | O=C(/C=C/c1ccnc2ccccc12)c1cccc2ccccc12 | 1.43 | 0.8 | Active | Non-Toxic | 1.83 | – | –
23 | O=C(/C=C/c1ccccc1)c1cccc2ccccc12 | 0.98 | 0.9 | – | Non-Toxic | 1.13 | Non-Toxic | IC50 (TK-10): 20 µM; viability at 100 µM (MCF7 [3]): < 50%; viability at 100 µM (HT-29 [12]): < 50%
24 | O=C(/C=C/c1cccc(Br)n1)c1ccccc1O | 1.23 | 1 | – | Non-Toxic | 1.18 | Non-Toxic | IC50 (TK-10): 18 µM; viability at 100 µM (MCF7 [3]): < 50%; viability at 100 µM (HT-29 [12]): < 50%
